In paper PMC8161026, “Synthesis and Anticancer Activity Evaluation of 5-[2-Chloro-3-(4-nitrophenyl)-2-propenylidene]-4-thiazolidinones” (Molecules, 2021):

How the values were obtained:
PC-3 = test: cells; conditions: Homo sapiens, PC-3, 48 h
SNB-19 = test: NCI DTP 60 cell line screen, SRB
SK-MEL-28 = SK-MEL-28 (Melanoma), 48 h, SRB
CAKI-1 = test: NCI DTP 60 cell line screen, SRB
HCC-2998 = test: NCI DTP 60 cell line screen, SRB
CCRF-CEM = test: NCI DTP 60 cell line screen, SRB; conditions: 48 h
HS 578T = test: NCI DTP 60 cell line screen, SRB; conditions: 48 h
MOLT-4 = MOLT-4 (Leukemia), 48 h, SRB
SW-620 = test: cells; conditions: Homo sapiens, SW-620, 48 h
IGROV1 = test: NCI DTP 60 cell line screen, SRB
HL-60(TB) = HL-60(TB) (Leukemia), 48 h, SRB
K-562 = K-562 (Leukemia), 48 h, SRB
BT-549 = test: NCI DTP 60 cell line screen, SRB
HCT-116 = test: cells; conditions: Homo sapiens, HCT-116, 48 h
HCT-15 = test: NCI DTP 60 cell line screen, SRB
KM12 [1] = test: cells; conditions: Homo sapiens, KM12, 48 h
A549/ATCC = A549/ATCC (Non-Small Cell Lung Cancer), 48 h, SRB
SR = test: cells; conditions: Homo sapiens, 48 h
NCI-322M = test: NCI DTP 60 cell line screen, SRB; conditions: 48 h
MDA-MB-231/ATCC = test: NCI DTP 60 cell line screen, SRB
UACC-62 = test: NCI DTP 60 cell line screen, SRB
MCF-7 = test: NCI DTP 60 cell line screen, SRB
MCF-7 (breast cancer) = test: MTT cell viability assay; type: cell-based; conditions: Homo sapiens, MCF7; MCF-7, MTT, 24 h
Summary of the method: (§1)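 MTT assay on AGS, DLD-1, MCF-7 and MDA-MB-231 cancer cell lines, with growth inhibition reported as GI50.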

AGS (gastric cancer) = test: MTT cell viability assay; type: cell-based; conditions: Homo sapiens, 24 h
Summary of the method: as §1

[2] = system: DLD-1 (human colon cancer); test: MTT cell viability assay; type: cell-based; conditions: DLD-1, MTT, 24 h
Summary of the method: as §1

OVCAR-8 = test: NCI DTP 60 cell line screen, SRB
U251 [3] = conditions: U251 (CNS Cancer), 48 h, SRB
KM12 [4] = conditions: KM12 (Colon Cancer), 48 h, SRB
SN12C = test: cells; conditions: Homo sapiens, 48 h
U251 [5] = test: cells; conditions: Homo sapiens, U-251, 48 h

## O=C1NC(=S)S/C1=C\C(Cl)=C\c1ccc([N+](=O)[O-])cc1 [Compound 2b, 5-[(Z,2Z)-2-Chloro-3-(4-nitrophenyl)-2-propenylidene]-2-thioxo-4-thiazolidinone]
PC-3
  GI50: 4.68 µM
PC-3; read-out: LC50
  CC50: > 50 µM
SNB-19; Homo sapiens, SNB-19, 48 h
  GI50: 8.1 µM
SNB-19; Homo sapiens, SNB-19, 48 h, read-out: LC50
  CC50: > 50 µM
SNB-19; SNB-19 (CNS Cancer), 48 h, SRB
  TGI: 21.4 µM
SK-MEL-28
  TGI: 12.3 µM
CAKI-1; CAKI-1 (Renal Cancer), 48 h, SRB
  TGI: 25.2 µM
CAKI-1; Homo sapiens, CAKI-1, 48 h
  GI50: 7.14 µM
CAKI-1; Homo sapiens, CAKI-1, 48 h, read-out: LC50
  CC50: > 50 µM
HCC-2998; HCC-2998 (Colon Cancer), 48 h, SRB
  TGI: 11.7 µM
HCC-2998; Homo sapiens, HCC 2998, 48 h
  GI50: 5.43 µM
HCC-2998; Homo sapiens, HCC 2998, 48 h, read-out: LC50
  CC50: 25 µM
CCRF-CEM; CCRF-CEM (Leukemia), SRB
  TGI: 21.5 µM
CCRF-CEM; Homo sapiens, CCRF-CEM
  GI50: 1.97 µM
CCRF-CEM; Homo sapiens, CCRF-CEM, read-out: LC50
  CC50: > 50 µM
HS 578T; HS 578T (Breast Cancer), SRB
  TGI: 12.1 µM
HS 578T; Homo sapiens, Hs-578T
  GI50: 1.42 µM
HS 578T; Homo sapiens, Hs-578T, read-out: LC50
  CC50: > 50 µM
MOLT-4
  TGI: 14.2 µM
SW-620
  GI50: 1.94 µM
SW-620; read-out: LC50
  CC50: 23.5 µM
IGROV1; Homo sapiens, IGROV-1, 48 h
  GI50: 7.28 µM
IGROV1; Homo sapiens, IGROV-1, 48 h, read-out: LC50
  CC50: > 50 µM
IGROV1; IGROV1 (Ovarian Cancer), 48 h, SRB
  TGI: 21.1 µM
HL-60(TB)
  TGI: 14.4 µM
K-562
  TGI: 42.5 µM
BT-549; BT-549 (Breast Cancer), 48 h, SRB
  TGI: 4.74 µM
BT-549; Homo sapiens, BT-549, 48 h
  GI50: 1.47 µM
BT-549; Homo sapiens, BT-549, 48 h, read-out: LC50
  CC50: 27.2 µM
HCT-116
  GI50: 2.93 µM
HCT-116; read-out: LC50
  CC50: 33.7 µM
HCT-15; HCT-15 (Colon Cancer), 48 h, SRB
  TGI: 8.81 µM
HCT-15; Homo sapiens, HCT-15, 48 h
  GI50: 1.79 µM
HCT-15; Homo sapiens, HCT-15, 48 h, read-out: LC50
  CC50: 25.4 µM
KM12 [1]
  GI50: 5.27 µM
KM12 [1]; read-out: LC50
  CC50: 40.4 µM
A549/ATCC
  TGI: > 50 µM
SR
  GI50: 1.18 µM
SR; read-out: LC50
  CC50: > 50 µM
NCI-322M; Homo sapiens, NCI-322M
  GI50: 6.51 µM
NCI-322M; Homo sapiens, NCI-322M, read-out: LC50
  CC50: > 50 µM
NCI-322M; NCI-322M (Non-Small Cell Lung Cancer), SRB
  TGI: 18.8 µM
MDA-MB-231/ATCC; Homo sapiens, MDA-MB-231, 48 h
  GI50: 8.16 µM
MDA-MB-231/ATCC; Homo sapiens, MDA-MB-231, 48 h, read-out: LC50
  CC50: > 50 µM
MDA-MB-231/ATCC; MDA-MB-231/ATCC (Breast Cancer), 48 h, SRB
  TGI: 28.1 µM
UACC-62; Homo sapiens, UACC-62, 48 h
  GI50: 5.75 µM
UACC-62; Homo sapiens, UACC-62, 48 h, read-out: LC50
  CC50: 27.2 µM
UACC-62; UACC-62 (Melanoma), 48 h, SRB
  TGI: 12.5 µM
MCF-7; Homo sapiens, MCF7, 48 h
  GI50: 2.14 µM
MCF-7; Homo sapiens, MCF7, 48 h, read-out: LC50
  CC50: > 50 µM
MCF-7; MCF-7 (Breast Cancer), 48 h, SRB
  TGI: 38.0 µM
MCF-7 (breast cancer)
  GI50: 4.79 µM
AGS (gastric cancer)
  GI50: 7.86 µM
[2]
  GI50: 8.39 µM
OVCAR-8; Homo sapiens, OVCAR-8, 48 h
  GI50: 5.08 µM
OVCAR-8; Homo sapiens, OVCAR-8, 48 h, read-out: LC50
  CC50: 47.9 µM
OVCAR-8; OVCAR-8 (Ovarian Cancer), 48 h, SRB
  TGI: 15.6 µM
U251 [3]
  TGI: 9.73 µM
KM12 [4]
  TGI: 14.6 µM
SN12C
  GI50: 4.11 µM
SN12C; read-out: LC50
  CC50: > 50 µM
U251 [5]
  GI50: 3.09 µM
U251 [5]; read-out: LC50
  CC50: 22.1 µM
